“Also recorded” adds a separate entry of the source.

Data set [1] deals with MC3T3 cells. The data set can be described thus: Mineralization, von-Kossa staining. The data set is classed as cell-based, mouse. The conditions noted are these: 10 days. On the procedure: To evaluate the effects of salubrinal on mineralization, MC3T3 cells were grown in the presence of 50 μg/ml of ascorbic acid and 5 mM β-glycerophosphate for 10 days with and without 10 or 50 μM salubrinal, and von-Kossa staining was conducted. Cells were fixed in 10% formalin and incubated in 5% silver nitrate for 30 min. After rinsing in PBS, staining was developed in 5% sodium carbonate for 2 min. They were counterstained with 0.1% nuclear fast red solution. […] In the field-of-view with 10× objective lens, the mean number of positive dots was 3.2-fold (10 μM salubrinal) and 2.9-fold (50 μM salubrinal) more than that for control cells without salubrinal treatment (FIG. 9).

The next data set relates to mouse hippocampus. The conditions noted are these: direct injection; cited from earlier work.
Data set [2] relates to brainstem motoneurons in mice. The conditions noted are these: hypoxia and reoxygenation events; cited from earlier work.
Data set [3] relates to MC3T3 cells. The data set is described as follows: Cell proliferation and death. The format is cell-based.
In the next data set the test system is C57BL/6 mice. The data set is described as follows: In vivo injection into intramedullary cavity of femora, BMD and BMC. Set-up: species or system mouse. Here is the method:
Responses to Administration of Salubrinal—In vivo responses to salubrinal: In order to evaluate the effects of salubrinal in vivo, salubrinal was injected into an intramedullary cavity of the left femora of C57BL/6 mice and alterations in bone mineral density (BMD) and bone mineral content (BMC) were determined. There were 9 salubrinal treated mice as well as 9 placebo mice (injection of PBS). All mice received 4 injections of either salubrinal or PBS in the left femur, while the right femur was used as contralateral control. In four consecutive injections with a 0.5-inch #26-gauge needle and a Hamilton micro-syringe, the laterial side was used on the 1st and 3rd injetions and the medial side on the 2nd and 4th injections. An injection volume was 20 μl for salubrinal or PBS, and the salubrinal concentration was 50 μM. […] At the time of harvest (2 wks after the 1st injection), an increase in body weight in Salubrinal group (0.80±0.13 g) was higher than that in Placebo group (0.28±0.15 g; p<0.05). Harvested bone samples were analyzed with PIXImus (version 1.4, GE Medical System Lunar) for determination of BMD and BMC.

Another data set relates to C57/BL/6 female mice. The data set is described as follows: Mouse tibia bone formation, ankle loading plus local salubrinal. The format is in vivo. Here is the method: Mouse tibia-bone formation: Twenty C57/BL/6 female mice (˜8 weeks, body weight ˜18 g) were employed to examine the combined effects of ankle loading and local administration of salubrinal to the tibia (Zhang P, et al., Salubrinal stimulates anabolic responses in mouse femora, 55th Ann Meeting ORS (2009)). Local administration was targeted into a bone marrow cavity from the proximal tibia. A total volume of 20 μl PBS was injected to the left hindlimb with or without 0.025 mg/kg (100 μM) salubrinal (Calbiochem) using a micro-syringe with a 0.5-inch #26-gauge needle (Worsham D N, et al., In vivo gene transfer into adult stem cells in unconditioned mice by in situ delivery of a lentiviral vector, Mol. Ther. 14:514-24 (2006); Zhu Y, et al., eIF-2a protects brainstem motoneurons in a murine model of sleep apnea, J. Neurosci. 28:2168-78 (2008)). In examination of the combined effects of mechanical loading and salubrinal administration, ankle loading was given for 5 consecutive days after administration of salubrinal on each day. The mouse was placed in an anesthetic induction chamber to cause sedation and then mask-anesthetized using 1.5% isoflurane. With a custom-made piezoelectric mechanical loader, loads were applied to the left ankle for 5 min/day in the lateral-medial direction. The loading frequency was 5 Hz, and the peak-to-peak force was 0.5 N (FIG. 12). The right hindlimb was used as a sham-loaded control (Zhang P, et al., Joint loading-driven bone formation and signaling pathways predicted from genome-wide expression profiles, Bone 44:989-998 (2009)).

Where [4] appears, read: ankle loading and salubrinal injection.
[5] abbreviates: tibia, 0.025 mg/kg (100 μM) plus ankle loading, 5 days.

Consider `O=C(/C=C/c1ccccc1)NC(NC(=S)Nc1cccc2cccnc12)C(Cl)(Cl)Cl` (stereo not shown) [salubrinal], for which the “mean number of von-Kossa positive dots vs control cells” value in the data set on MC3T3 cells [1] (10 μM) turned out to be 3.2 fold. Besides, the “mean number of von-Kossa positive dots vs control cells” value with MC3T3 cells [1] (50 μM) was determined as 2.9 fold. For the same compound, in the data set on mouse hippocampus, the “ATF4-dependent long-term synaptic plasticity and memory” value was “modulated”. For the same compound, the motoneuronal injury entry in data set [2] was “suppressed”. The cell death entry in the data set on MC3T3 cells [3] (50 μM, no statistical difference (p>0.05)) was “reduced cell death”. In addition, in the data set on MC3T3 cells [3] (10 or 50 μM for 24 h), the “cell proliferation or death” value is on record as “did not alter”. For the same compound, in the data set on C57BL/6 mice (femur, 20 μl 50 μM injection), the “BMC vs contralateral control” value is reported as “trend to elevate; also recorded: Increased” and the “BMD vs contralateral control” value was “Increased”. This compound had a BMD in the data set on C57BL/6 mice (injected femur, mean±s.e.m.) of 0.0456±0.0011 g/cm^2. In addition, in the data set with C57/BL/6 female mice (setting [4]), the “relative increase in BMC vs ankle loading alone” value came out at 1.5 fold and the “relative increase in BMD vs ankle loading alone” value was 2.3 fold. In the data set with C57/BL/6 female mice (setting [5]), the BMC is 0.0154 ± 0.0004 g and the BMD is 0.0443±0.0011 g/cm^2.

The record behind these values is patent publication US20120295935A1, “MIXED AMINAL PHARMACEUTICAL COMPOSITIONS AND USES THEREOF” (priority 2010, published 2012).
